Each structure is given as a SMILES string.

Holding throughout (assay type): biochemical
Assay [1] deals with T1, MMP-1 (interstitial collagenase) (Homo sapiens, UniProt P03956).
T1 sequence (P03956 100-469): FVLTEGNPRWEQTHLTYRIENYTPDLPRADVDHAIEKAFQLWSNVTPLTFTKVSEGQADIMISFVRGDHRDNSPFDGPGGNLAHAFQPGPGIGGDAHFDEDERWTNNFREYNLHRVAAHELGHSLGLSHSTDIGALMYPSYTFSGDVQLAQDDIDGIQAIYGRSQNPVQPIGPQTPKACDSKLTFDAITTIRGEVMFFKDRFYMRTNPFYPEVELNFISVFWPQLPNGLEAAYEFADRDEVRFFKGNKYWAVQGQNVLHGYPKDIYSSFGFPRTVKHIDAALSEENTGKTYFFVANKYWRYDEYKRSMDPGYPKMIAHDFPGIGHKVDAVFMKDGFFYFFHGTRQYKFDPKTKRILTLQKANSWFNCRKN
Put plainly: inhibition of MMP-1 hydrolysis of thiopeptolide substrate. Particulars: pH 6.0, 22° C. The text has this: (§1) The invention compounds have been evaluated in standard in vitro assays and shown to be potent inhibitors of several matrix metalloproteinase enzymes.

In assay [2] the target is MMP-3 (stromelysin) (Homo sapiens, UniProt P08254). Put plainly: inhibition of MMP-3 hydrolysis of thiopeptolide substrate. Particulars: thiopeptolide substrate, pH 6.0, 22° C.; read-out: (IC50) MMP-3. From the text:
The assays measure the amount by which a test compound reduces the hydrolysis of a thiopeptolide substrate caused by a matrix metalloproteinase enzyme. Such assays are described in detail by Ye, et al., in Biochemistry, 1992;31(45):11231-11235).
Thiopeptolide substrates show virtually no decomposition or hydrolysis in the absence of a matrix metalloproteinase enzyme. A typical thiopeptolide substrate commonly utilized for assays is Ac-Pro-Leu-Gly-thioester-Len-Len-Gly-O Et. […] Assays are carried out with and without matrix metalloproteinase inhibitor compounds, and the amount of hydrolysis is compared for a determination of inhibitory activity of the test compounds.
In the table, MMP-1 refers to interstitial collagenase; MMP-2 refers to Gelatinase A; MMP-3 refers to stromelysin; MMP-7 refers to matrilysin; and MMP-13 refers to Collagenase 3.

For assay [3], the target named is T2, MMP-2 (Gelatinase A) (Homo sapiens, UniProt P08253).
T2 sequence (P08253 110-660): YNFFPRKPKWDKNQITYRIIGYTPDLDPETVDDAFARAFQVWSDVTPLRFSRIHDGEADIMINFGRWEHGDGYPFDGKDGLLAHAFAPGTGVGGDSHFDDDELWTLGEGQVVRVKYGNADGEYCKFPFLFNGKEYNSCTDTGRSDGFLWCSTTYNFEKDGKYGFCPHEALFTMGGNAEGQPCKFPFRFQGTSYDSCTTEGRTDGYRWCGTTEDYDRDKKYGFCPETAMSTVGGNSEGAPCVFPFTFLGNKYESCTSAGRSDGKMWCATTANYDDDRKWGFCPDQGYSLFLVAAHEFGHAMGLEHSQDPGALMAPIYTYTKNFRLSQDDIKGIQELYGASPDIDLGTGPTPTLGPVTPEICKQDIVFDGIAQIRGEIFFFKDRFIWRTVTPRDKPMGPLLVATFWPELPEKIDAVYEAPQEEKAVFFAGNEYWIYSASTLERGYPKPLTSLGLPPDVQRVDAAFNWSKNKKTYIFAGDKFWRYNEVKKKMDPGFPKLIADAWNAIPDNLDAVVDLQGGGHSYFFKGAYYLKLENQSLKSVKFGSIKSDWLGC
Put plainly: inhibition of MMP-2 hydrolysis of thiopeptolide substrate. Particulars: thiopeptolide substrate, pH 6.0, 22° C.; read-out: (IC50) MMP-2.

Assay [4] concerns the target MMP-13 (Collagenase 3) (Homo sapiens, UniProt P45452). Nature of the assay: inhibition of MMP-13 hydrolysis of thiopeptolide substrate. Particulars: thiopeptolide substrate, pH 6.0, 22° C.; read-out: (IC50) MMP-13.
From the text: as §1

The target in assay [5] is T3, full-length gelatinase B (FLGB) (Homo sapiens, UniProt P14780).
T3 construct: full-length gelatinase B (FLGB) hydrolysis of thiopeptolide
T3 sequence (P14780 94-707): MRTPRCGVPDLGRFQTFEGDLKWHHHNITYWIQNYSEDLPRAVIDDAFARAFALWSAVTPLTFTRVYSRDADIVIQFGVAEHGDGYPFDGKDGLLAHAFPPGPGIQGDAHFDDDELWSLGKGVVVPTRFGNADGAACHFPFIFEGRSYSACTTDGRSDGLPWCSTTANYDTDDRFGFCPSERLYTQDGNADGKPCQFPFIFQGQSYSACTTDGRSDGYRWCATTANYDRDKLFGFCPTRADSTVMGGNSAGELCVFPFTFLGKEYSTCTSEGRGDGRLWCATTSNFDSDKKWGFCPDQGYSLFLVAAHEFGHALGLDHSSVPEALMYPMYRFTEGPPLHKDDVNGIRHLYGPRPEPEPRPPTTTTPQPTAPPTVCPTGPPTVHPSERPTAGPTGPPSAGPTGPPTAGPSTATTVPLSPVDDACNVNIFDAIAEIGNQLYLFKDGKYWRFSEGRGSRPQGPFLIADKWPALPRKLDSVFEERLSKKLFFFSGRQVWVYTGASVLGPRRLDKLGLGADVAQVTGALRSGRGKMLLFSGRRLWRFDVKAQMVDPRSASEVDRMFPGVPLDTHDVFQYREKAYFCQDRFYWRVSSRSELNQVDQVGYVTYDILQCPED
Put plainly: inhibition of full-length gelatinase B hydrolysis of thiopeptolide.
From the text: as §1
(§2) The compounds were additionally evaluated for their ability to inhibit full-length collagenase hydrolysis of thiopeptolide substrate (FLC) and full-length gelatinase B (FLGB) hydrolysis of thiopeptolide.

The target in assay [6] is T4, full-length collagenase (FLC) (Homo sapiens, UniProt P03956).
T4 construct: full-length collagenase hydrolysis of thiopeptolide substrate (FLC)
T4 sequence (P03956 100-469): T1 sequence (P03956 100-469)
Nature of the assay: inhibition of full-length collagenase hydrolysis of thiopeptolide substrate.
From the text: as §1, §2

MMP-3 (stromelysin), sequence (P08254 100-477): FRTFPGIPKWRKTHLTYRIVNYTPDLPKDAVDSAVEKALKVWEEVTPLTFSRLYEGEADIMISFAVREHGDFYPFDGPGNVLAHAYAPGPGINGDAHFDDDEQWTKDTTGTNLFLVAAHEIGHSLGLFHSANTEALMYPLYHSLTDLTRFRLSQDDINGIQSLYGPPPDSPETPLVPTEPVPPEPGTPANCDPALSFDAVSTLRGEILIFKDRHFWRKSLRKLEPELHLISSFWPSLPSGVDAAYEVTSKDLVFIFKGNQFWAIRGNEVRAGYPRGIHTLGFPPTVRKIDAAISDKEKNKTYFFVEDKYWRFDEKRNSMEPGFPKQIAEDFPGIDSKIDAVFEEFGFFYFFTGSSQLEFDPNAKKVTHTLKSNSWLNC

Regarding `Cc1ccc(S(=O)(=O)N[C@@H](CC(=O)c2ccc3oc4ccccc4c3c2)C(=O)O)cc1` [Example 14, (S) -4-Dibenzofuran-2-yl-4-oxo-2-(4-methylphenylsulfonylamino)-butyric acid], the IC50 (commonly the concentration that inhibits the measured activity by half) in assay [1] amounted to 83 µM; in assay [2], 0.26 µM; in assay [3], 0.017 µM; in assay [4] it was 1.1 µM.
Regarding `CC(Oc1ccccc1)C(=O)NC(CC(=O)c1ccc2oc3ccccc3c2c1)C(=O)O` (stereo not shown) [Example 30, 4-Dibenzofuran-2-yl-4-oxo-2-(2-phenoxy-propionylamino)-butyric acid], the IC50 in assay [1] was found to be 45 µM; in assay [2] it was 0.1 µM; in assay [3] it was 0.035 µM; in assay [4], 2.9 µM.
As to `O=C(C[C@H](NC(=O)C(F)(F)F)C(=O)O)c1ccc2oc3ccccc3c2c1` [Example 1, (S)-4-Dibenzofuran-2-yl-4-oxo-2-(2,2,2-trifluoroacetylamino)-butyric acid], the IC50 in assay [2] was 0.95 µM; in assay [5] it was above 100 µM; in assay [6] it was above 100 µM; in assay [3], 0.059 µM; in assay [4], 2.8 µM.
